The record followed here is patent publication US20240400584A1, “COMPOUNDS AND METHODS FOR MODULATING SPLICING” (REMIX THERAPEUTICS INC., priority 2021, published 2024).

Each structure is given as a SMILES string.

Test [1] relates to HTT. The test is described as follows: RT-qPCR splicing assay, HTT AJ/CJ mRNA. Particulars: Homo sapiens, A673 or K562 cells; for IC50: decrease in canonical junction mRNA; for AC50: increase in alternative junction mRNA. The test is classed as cell-based, human. In short, it runs like this: (§1)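 Splicing switch scored as change in CJ and AJ isoform levels, by RT-qPCR on lysates of A673 or K562 cells dosed 24 h (top concentration 10 uM, DMSO at most 0.25%). ΔΔCt relative to DMSO wells was converted to RQ and then to percentage response.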
For orientation: Quantitative PCR measures a nucleic acid by following its amplification.

In the next test the test system is SMN2. The test is described as follows: Gene panel canonical junction qPCR assay, SMN2 CJ mRNA (Table 7). The test is classed as cell-based. Particulars: Homo sapiens, read-out: SMN2 CJ mRNA decrease IC50. An outline of the steps:
(§2)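 Treated K562 or A673 cells; measured CJ mRNA by cDNA synthesis and qPCR, 2^(−ΔΔCt) against housekeeper and DMSO. IC50 marks half-maximal CJ decrease.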

Test [2] concerns HTT. The test is described as follows: Gene panel canonical junction qPCR assay, HTT CJ mRNA (Table 7). The test is classed as cell-based, human. Particulars: Homo sapiens, read-out: HTT CJ mRNA decrease IC50. In short, it runs like this:
as §2

In test [3] the test system is MYB. The test is described as follows: Gene panel canonical junction qPCR assay, MYB CJ mRNA (Table 7). Particulars: Homo sapiens, read-out: MYB CJ mRNA decrease IC50. The class given is cell-based. In short, it runs like this: as §2
A further test concerns Target C. As to the kind of experiment: Gene panel canonical junction qPCR assay, Target C CJ mRNA (Table 7). The test is classed as cell-based, human. As to conditions: Homo sapiens, read-out: Target C CJ mRNA decrease IC50. In short, it runs like this:
as §2

Test [4] deals with MYB. The test is described as follows: RT-qPCR splicing assay, MYB AJ/CJ mRNA. The test is classed as cell-based. Particulars: Homo sapiens, A673 or K562 cells, 24 hours; for IC50: decrease in canonical junction mRNA; for AC50: increase in alternative junction mRNA. In short, it runs like this:
as §1

As to `COc1cc(-c2ccc3c(c2)COc2nc(N4CCN[C@H](C5CC5)C4)ccc2-3)cnn1` [Compound 297], the IC50 – broadly, the midpoint of a concentration-inhibition curve – was below 100 nM with HTT [1] (24 h); below 100 nM with SMN2; below 100 nM with HTT [2]; 100 to 1000 nM in the test with MYB [3]; 100 to 1000 nM with Target C; 100 to 1000 nM in the test on MYB [4]. Further, the concentration at half-maximal activity (AC50) in the test on HTT [1] (24 h) and in the test with MYB [4] was 100 to 1000 nM each time.

For `COc1cc(-c2ccc3c(c2)COc2nc(O[C@@H]4C[C@H]5CC[C@@H](C4)N5)ncc2-3)cnn1` [Compound 298], the IC50 in the test with HTT [1] (24 h) is 100 to 1000 nM; with SMN2, below 100 nM; in the test on HTT [2], 100 to 1000 nM; in the test on MYB [3], 1000 to 10000 nM; in the test on Target C, 1000 to 10000 nM; in the test with MYB [4], 1000 to 10000 nM. In addition, the concentration at half-maximal activity (AC50) in the test with HTT [1] (24 h) and with MYB [4] was 100 to 1000 nM each time.

Regarding `COc1cc(-c2ccc3c(c2)COc2nc(OC4CC(C)(C)NC(C)(C)C4)ncc2-3)cnn1` [Compound 299], the half-inhibitory concentration (IC50) was in the range of 100 to 1000 nM in the test with HTT [1] (24 h); 100 to 1000 nM in the test on SMN2; 100 to 1000 nM in the test on HTT [2]; 1000 to 10000 nM with MYB [3]; 1000 to 10000 nM in the test on Target C; 1000 to 10000 nM with MYB [4]. The AC50 (commonly the concentration at which the activity in the assay is half-maximal) in the test with HTT [1] (24 h) lay within 100 to 1000 nM; in the test with MYB [4], 1000 to 10000 nM.

In the case of `CNC1CCN(c2ccc3c(n2)OCc2cc(-c4cnnc(OC)c4)ccc2-3)CC1` [Compound 300, 1-[8-(6-methoxypyridazin-4-yl)-6H-isochromeno[3,4-b]pyridin-3-yl]-N-methylpiperidin-4-amine], the half-inhibitory concentration (IC50) with HTT [1] (24 h) is 1000 to 10000 nM; in the test with SMN2 it was 100 to 1000 nM; in the test with HTT [2], 1000 to 10000 nM; in the test with MYB [3] it was above 10000 nM; with Target C, 1000 to 10000 nM; with MYB [4] it was above 10000 nM. The figures for the half-maximal activity concentration (AC50) in the test on HTT [1] (24 h) and in the test with MYB [4] were 1000 to 10000 nM and above 10000 nM, respectively.

In the case of `COc1cc(-c2ccc3c(c2)COc2nc(N4CCC(NC(C)C)CC4)ccc2-3)cnn1` [Compound 301, N-isopropyl-1-[8-(6-methoxypyridazin-4-yl)-6H-isochromeno[3,4-b]pyridin-3-yl] piperidin-4-amine], the half-inhibitory concentration (IC50) in the test with HTT [1] (24 hours), in the test on SMN2, in the test on HTT [2], in the test with MYB [3], in the test with Target C and in the test on MYB [4] was 1000 to 10000 nM throughout. Also, the AC50 in the test on HTT [1] (24 hours) was in the range of 100 to 1000 nM; with MYB [4], 1000 to 10000 nM.

Consider `COc1cc(-c2ccc3c(c2)COc2nc(N4CCC(NC(C)(C)C)CC4)ccc2-3)cnn1` [Compound 302], for which the half-maximal inhibitory concentration (IC50) in the test on HTT [1] (24 h), in the test on SMN2, with HTT [2], in the test with MYB [3], in the test on Target C and in the test on MYB [4] was above 10000 nM each time. Also, the half-maximal activity concentration (AC50) in the test with HTT [1] (24 h) and in the test on MYB [4] was above 10000 nM each time.

Take `COc1cc(-c2ccc3c(c2)COc2nc(N4CCN[C@@H](C(C)C)C4)ccc2-3)cnn1` [Compound 303]: the IC50 is below 100 nM in the test on HTT [1] (24 h); below 100 nM in the test on SMN2; below 100 nM with HTT [2]; 100 to 1000 nM in the test with MYB [3]; 100 to 1000 nM in the test on Target C; 100 to 1000 nM in the test with MYB [4]. In addition, the AC50 in the test with HTT [1] (24 h) and in the test with MYB [4] was 100 to 1000 nM throughout.

On to `COc1cc(-c2ccc3c(c2)COc2nc(N4CCNC(C(C)(C)C)C4)ccc2-3)cnn1` (stereo not drawn) [Compound 304], for which the IC50 was below 100 nM in the test on HTT [1] (24 h); below 100 nM in the test with SMN2; below 100 nM in the test on HTT [2]; 100 to 1000 nM in the test with MYB [3]; 100 to 1000 nM with Target C; 100 to 1000 nM in the test on MYB [4]. Also, the AC50 in the test with HTT [1] (24 h) is below 100 nM; in the test on MYB [4], 100 to 1000 nM.

On to `COc1cc(-c2ccc3c(c2)COc2nc(N4CCC(N(C)CC5CC5)C4)ccc2-3)cnn1` (stereo not drawn) [Compound 308], for which the 50% inhibitory concentration (IC50) in the test with HTT [1] (24 h) was 100 to 1000 nM; in the test on SMN2, 100 to 1000 nM; in the test on HTT [2], 100 to 1000 nM; in the test on MYB [3], 1000 to 10000 nM; with Target C it was 1000 to 10000 nM; with MYB [4] it was 1000 to 10000 nM. Also, the concentration at half-maximal activity (AC50) in the test on HTT [1] (24 h) and in the test on MYB [4] was 1000 to 10000 nM each time.
